Experiments:
[1] = tested on: PKC α, βI, ε, δ; experiment: PKC isoform activation in left ventricle, Western blots; type: in vivo, rat; details: between all groups (SH, AAC, SHQ, AACQ)
Source text: Following the experimental period, rats were sacrificed, left ventricles were homogenized, and cytosolic & membrane cell fractions isolated using differential centrifugation as previously described (Jalili et al., 1999). Immunobloting using standard protocols was used to assess PKC distribution. […] Increased abundance in membrane bound fractions is indicative of PKC activation.
Western blotting, transfer and densitometry: Electrophoresis and transfer of proteins to PVDF membranes were done as previously described (18, 19). Primary antibody directed against PKC α, βI, βII, δ, and ε (Santa Cruz Biotechnology, Santa Cruz, Calif.) were incubated overnight at 4° C. in a 1:1000 dilution. Antibodies directed against phospho ERK 1/2, phospho JNK, ph c-Raf (Cell Signal Technology, Beverly, Mass.), and phospho PKC P (Santa Cruz Biotechnology, Santa Cruz, Calif.), were incubated at a 1:1000 dilution for 48 h at 4° C. in 5% BSA Tris buffer with 0.05% Tween-20. Secondary antibody conjugated to horseradish peroxidase (goat anti rabbit, (Cell Signal Technology, Beverly, Mass.)) was incubated for 1 h at 1:10,000 dilution. Signals were visualized by enhanced chemiluminescence (Cell Signal Technology, Beverly, Mass.). Relative band density of immunoblots on film were measured with a scanner using NIH 1.63 image software (National Institutes of Health, Rockville, Md.).

[2] = Plasma quercetin in trial subjects (HPLC); type: in vivo; details: human, oral
Method: Blood samples were collected after blood pressure was measured. Blood was collected by antecubital venipuncture from fasting subjects into sodium heparin tubes (Becton Dickinson, N.J., USA). Collected blood was immediately stored on ice and centrifuged within 10 minutes at 4° C. for 15 minutes at 2500 g as previously described (36).
Supernatants then were extracted with ethyl acetate and injected into an HPLC Discovery C18 column. The mobile phase was 1% acetic acid (solvent A) and 95% acetonitrile in 1% phosphoric acid (solvent B). The gradient elution was solvent B from 10 to 85% in 20 minutes, holding for 5 minutes before returning back to 10% for conditioning. A visible detector with 365 nm was used.

O=c1c(O)c(-c2ccc(O)c(O)c2)oc2cc(O)cc(O)c12 [quercetin, 3,5,7,3′,4′-pentahydroxyflavone]
Activation of PKC α, βI, ε, or δ isoforms [1]: no significant differences | concentration at 1 week after end of supplementation [2]: 190 ± 9 ng/mL | concentration at 4 weeks ([2]; 730 mg/day for 4 weeks, fasted, 235±35 after placebo): 480 ± 64 ng/mL
